Where two headings read alike, the source gives them in different places.
Key:
mouse splenocytes = experiment: Con-A-induced mouse splenocyte proliferation, Alamar blue; assay type: cell-based; conditions: for Splenocyte proliferation: 48 hours
Protocol: The effect of several psychotropic drugs on the proliferation of Con-A-induced mouse splenocyte proliferation was examined. The specific drugs evaluated included, without being limited thereto, the bicyclic antidepressants paroxetine and sertraline.
In particular, mouse splenocytes were isolated from C57BL healthy female mice. […]
Cell viability was assessed 48 hr later using Alamar blue staining.
(§1) In particular, cells 1×10^6 cells/well were exposed for 48 hours to each drug (2.5-10 μM).
(§2) As described above, cells were exposed to each drug for 48 hours.

HaCat cells [1] = experiment: Apoptosis by Hoechst 33342 / propidium iodide fluorescence microscopy; assay type: cell-based, human; conditions: 20 μM, 24 hours
Protocol: In particular, HaCat cells (10,000/well) were exposed to the different drugs (20 μM) or to saline (control). Twenty four hours post exposure, the cells were co-stained with the DNA binding dyes, Hoechst 33342 (20 μg/ml) propidium iodide (PI) (10 μg/ml), for 5 min at room temperature. The cells were then examined using a fluorescence microscope with ultraviolet excitation at 340-380 nm. Typically, intact cells are detected by a blue Hoechst fluorescence while fragmented nuclear is detected by a red fluorescence, indicating cells undergoing apoptosis [Harel et al., Sensitivity of HaCat keratinocytes to diabetogenic toxins, Biochem. Pharmacol., 63:171-178, 2002].

HaCat II-4RT cells = experiment: Cell viability of HaCat II-4RT keratinocytes, Neutral Red Staining; assay type: cell-based, human; conditions: for Effect on viability of HaCat II4 cells: 5-100 μM, 24 hr
Protocol: (§3) In general, 10,000 cells/well were treated with drugs from different categories of psychotropic drugs.
(§4) The effect of the drugs was compared at equimolar concentrations to that of two commonly used anticancer agents (Doxorubicin and 5-fluorouracil (5-FU)).

[2] = system: TNF-α secretion from mouse splenocytes; experiment: Con-A-induced TNF-α secretion from mouse splenocytes, ELISA; assay type: cell-based; conditions: 48 hours; for IC50: Mus musculus, Splenocyte, 2.5-20 μM, mean of three experiments
Protocol: Cells treated with Con-A alone served as the control (“Con-A”).
In particular, mouse splenocyte cells 1×10 (cells/well) were exposed, for 48 hours, to the different drugs and ConA and at the end of the experiment plates were centrifuged and supernatant collected for cytokine determination and TNF-α levels were determined in soups by ELISA. (R&D #DY410 Minnapolis USA)
as §2

[3] = system: IL-2 and INF-γ secretion from mouse splenocytes; experiment: Con-A-induced splenocyte secretion of IL-2 and INF-γ; assay type: cell-based; conditions: 48 hours, 2.5-10 μM; FIG. 14
Protocol: as §1

HaCat cells [4] = experiment: Cell viability of HaCat keratinocytes, Neutral Red Staining; assay type: cell-based, human; conditions: for Effect on viability of HaCat cells: 5-100 μM, 24 hr; for IC50: Homo sapiens, HaCaT, read-out: Mean IC50 in keratinocytes, HaCat; for Responsiveness of HaCat cells (viability): comparison of thioridazine, doxorubicin, 5-FU, FIG. 3A
Protocol: as §3, §4

[5] = system: wild type B16 melanoma cells; experiment: Cell viability of wild type B16 melanoma cells; assay type: cell-based; conditions: 24 hr, 10-100 μM
human lymphocytes = experiment: PHA-induced human lymphocyte proliferation, Alamar blue; assay type: cell-based; conditions: PHA 2.5 μg/ml, 48 hr, 3 healthy volunteers
Protocol: Human lymphocytes were isolated from whole blood of 3 healthy volunteers. Lymphocyte proliferation was induced by exposure 1×10^6 cells/well to phytohemagglutinin (PHA) (2.5 μg/ml). Cell viability was assessed 48 hr post exposure to paroxetine (2.5-10.0 μM) using Alamar blue reagent (Wildflower, Santa Fe, N.M., USA) staining Nociari M M, Shalev A, Benias P , et al. A novel one-step highly sensitive fluorimetric assay to evaluate cell-mediated cytotoxicity. J. Immunol. Methods 213(2): 157-167, 1998.

HaCat A5 cells = experiment: Cell viability of HaCat A5 keratinocytes, Neutral Red Staining; assay type: cell-based, human; conditions: for Effect on viability of HaCat A5 cells: 5-100 μM, 24 hr
Protocol: as §3, §4

[6] = system: caspase-3 in human HaCaT cells; experiment: Caspase-3 activation, fluorimetric Ac-DEVD-AMC method; assay type: cell-based; conditions: 4 hours, paroxetine 10-20 μM, sertraline 10-[…] μM
Protocol: An additional marker for apoptosis is the activation of caspase-3 (a key mediator implicated in apoptosis in mammalian cells belong to the asparate-specific cysteinyl proteases or caspases).
In the following assay caspase-3 activation was measured by an enzymatic fluorimetric method, using fluorigenic substrate (Ac-DEVD-AMC) (Biomol, PA, USA) which produces a blue fluorescence detected at a 360 nm wavelength. The fluorigenic moiety AMC is cleaved from the substrate in the presence of caspase-3 (and caspase-3-like enzymes), which results in appearance of a yellow-green fluorescence monitored by a fluorimeter at 460 nm. The amount of the yellow-green fluorescence is proportional to the activity of the caspase-3 in the cell extract sample.
[…]. […] Measurements were determined, after the 4 hr exposure, every 3 min during 45 min, after which a specific caspase 3 inhibitor DEVD-AMC-CHO (Alexis corp. Lausen Switzerland) was added to half of the samples and measurements continued for another 45 min as previously described (Garcia-Calvo M, Peterson E P, Leiting B, Ruel R, Nicholson D W, Thornberry N A: Inhibition of human caspases by peptide-based and macromolecular inhibitors. J Biol Chem, 27(49):32608-13, 1998).

[7] = system: wild type B16 melanoma cells; experiment: Effect on doxorubicin toxicity in wild type B16 melanoma cells; assay type: cell-based; conditions: clomipramine 10, […], 20 μM + doxorubicin 1, 2.5, 5 μM, 24 hr
MDR B16 melanoma cells [8] = experiment: Sensitization of MDR B16 melanoma cells to doxorubicin; assay type: cell-based; conditions: 24 hr
MDR B16 melanoma cells [9] = experiment: Cell viability of MDR B16 melanoma cells; assay type: cell-based; conditions: 24 hr
Protocol: Specifically, the different drugs were applied for 24 hr to the cells (20,000/well) at concentrations of 10, 20, 30, 50, 75 and 100 μM.

[10] = 24 hr post-administration, Neutral Red, mean of several experiments

Fc1ccc([C@@H]2CCNC[C@H]2COc2ccc3c(c2)OCO3)cc1 [Paroxetine, paroxetine]
Splenocyte proliferation (mouse splenocytes; 2.5-10 μM, FIG. 14): dose dependent decrease in splenocyte proliferation
Splenocyte proliferation (mouse splenocytes; 2.5-25 μM, FIG. 16): inhibited cell proliferation and TNF-α secretion in a dose dependent manner
IC50 (mouse splenocytes; Mus musculus, Splenocyte, 48 hr, 2.5-10 μM, C57BL mice): 2.5 to 5.5 µM
Red fluorescence of nuclei indicating apoptosis (HaCat cells [1]): dramatic increase in red fluorescence of nuclei
Effect on viability of HaCat II4 cells (HaCat II-4RT cells): effective in reducing viability
TNF-α secretion ([2]; 2.5-25 μM, FIG. 16): inhibited cell proliferation and TNF-α secretion in a dose dependent manner
IC50 [2]: 2.5 µM
Lymphocyte-induced cytokine secretion (IL-2, INF-γ) [3]: decrease in the lymphocyte-induced cytokine secretion
Effect on viability of HaCat cells (HaCat cells [4]): effective in reducing viability
IC50 (HaCat cells [4]; [10]): 17.8 µM
Viability of wild type B16 melanoma cells [5]: capable of reducing cell viability
IC50 (human lymphocytes): 5 to 10 µM
Effect on viability of HaCat A5 cells (HaCat A5 cells): effective in reducing viability
Caspase-3 activity [6]: significant increase in caspase-3 activity

CN(C)CCCC1(c2ccc(F)cc2)OCc2cc(C#N)ccc21 (stereo not shown) [Citalopram, citalopram]
IC50 (HaCat cells [4]; [10]): > 100 µM

C[C@@H]1C[C@H]2[C@@H]3CCC4=CC(=O)C=C[C@]4(C)[C@@]3(F)[C@@H](O)C[C@]2(C)[C@@]1(O)C(=O)CO [dexamethasone]
IC50 [2]: 0.6 µM

CN(C)CCCN1c2ccccc2CCc2ccccc21 [Imipramine, imipramine]
Effect on viability of HaCat II4 cells (HaCat II-4RT cells): effective in reducing viability
IC50 (HaCat II-4RT cells; Homo sapiens, HaCaT, 24 hr post-administration, Neutral Red, mean of several experiments, read-out: Mean IC50 in keratinocytes, HaCatII4RT): 48 µM
Effect on viability of HaCat cells (HaCat cells [4]): effective in reducing viability
Effect on viability of HaCat A5 cells (HaCat A5 cells): effective in reducing viability
IC50 (HaCat A5 cells; Homo sapiens, HaCaT, 24 hr post-administration, Neutral Red, mean of several experiments): 62 µM

NCCC(Oc1ccc(C(F)(F)F)cc1)c1ccccc1 (stereo not shown) [norfluoxetine]
Antiproliferative activity as compared to fluoxetine (HaCat cells [4]; viability of HaCat cells, FIG. 10): five times increased antiproliferative activity

COc1ccc(C(CN(C)C)C2(O)CCCCC2)cc1 (stereo not shown) [Venlafaxine, venlafaxine]
IC50 (HaCat cells [4]; [10]): > 100 µM

COc1cccc2c1C(=O)c1c(O)c3c(c(O)c1C2=O)C[C@@](O)(C(=O)CO)C[C@@H]3O[C@H]1C[C@H](N)[C@H](O)[C@H](C)O1 [doxorubicin]
Responsiveness of HaCat cells (viability) (HaCat cells [4]): equimolar IC50 as for thioridazine

CN(C)CCCN1c2ccccc2CCc2ccc(Cl)cc21 [Clomipramine, clomipramine]
Splenocyte proliferation (mouse splenocytes; 2.5-10 μM, FIG. 14): dose dependent decrease in splenocyte proliferation
Red fluorescence of nuclei indicating apoptosis (HaCat cells [1]): dramatic increase in red fluorescence of nuclei
Effect on viability of HaCat II4 cells (HaCat II-4RT cells): effective in reducing viability
Lymphocyte-induced cytokine secretion (IL-2, INF-γ) [3]: decrease in the lymphocyte-induced cytokine secretion
Effect on viability of HaCat cells (HaCat cells [4]): effective in reducing viability
Viability of wild type B16 melanoma cells [5]: capable of reducing cell viability
Cell viability from control, in combination with doxorubicin [7]: less than 15%
Cell viability in combination with doxorubicin (MDR B16 melanoma cells [8]): significantly reduced, in a dose dependant manner
Effect on viability of HaCat A5 cells (HaCat A5 cells): effective in reducing viability

CNCCC(Oc1ccc(C(F)(F)F)cc1)c1ccccc1 (stereo not shown) [Fluoxetine, fluoxetine]
Effect on viability of HaCat II4 cells (HaCat II-4RT cells): effective in reducing viability
Effect on viability of HaCat cells (HaCat cells [4]): effective in reducing viability
Viability of wild type B16 melanoma cells [5]: capable of reducing cell viability, with fluoxetine being the most effective drug
Effect on viability of HaCat A5 cells (HaCat A5 cells): effective in reducing viability

O=c1[nH]cc(F)c(=O)[nH]1 [5-FU, 5-fluorouracil]
Responsiveness of HaCat cells (viability) (HaCat cells [4]): resistant
Responsiveness of HaCat A5 cells (viability) (HaCat A5 cells; comparison of thioridazine, doxorubicin, 5-FU, FIG. 3B): resistant

CN1CCN(C2=Nc3cc(Cl)ccc3Nc3ccccc32)CC1 [Clozapine, clozapine]
Viability of MDR B16 melanoma cells (MDR B16 melanoma cells [9]): reduced in a dose dependent manner
Effect on viability of HaCat II4 cells (HaCat II-4RT cells): effective in reducing viability
Effect on viability of HaCat cells (HaCat cells [4]): effective in reducing viability
Viability of wild type B16 melanoma cells [5]: reduced in a dose dependent manner
Effect on viability of HaCat A5 cells (HaCat A5 cells): effective in reducing viability

CN[C@H]1CC[C@@H](c2ccc(Cl)c(Cl)c2)c2ccccc21 [Sertraline, sertraline]
Caspase-3 activity [6]: significant increase in caspase-3 activity

CSc1ccc2c(c1)N(CCC1CCCCN1C)c1ccccc1S2 (stereo not shown) [Thioridazine, thioridazine]
Effect on viability of HaCat II4 cells (HaCat II-4RT cells): effective in reducing viability
Effect on viability of HaCat cells (HaCat cells [4]): effective in reducing viability
Effect on viability of HaCat A5 cells (HaCat A5 cells): effective in reducing viability

CCOc1ccccc1OC(c1ccccc1)C1CNCCO1 (stereo not shown) [Reboxetine, reboxetine]
IC50 (HaCat cells [4]; 24 h): > 100 µM
